From patent US20240254139A1, “FUSED ISOXAZOLYL COMPOUNDS AS KAT6A INHIBITORS” (Aurigene Oncology Limited, priority 2021, published 2024)

Molecular target: T1, human-KAT6A (MYST domain 507-778 aa) (Homo sapiens, UniProt Q92794)
T1 construct: human-KAT6A (MYST domain 507-778 aa)
Experiment: KAT6A biochemical assay (TR-FRET)
Details: for inhibition at 1 µM: compound at 1 μM, percent inhibition of internal assay controls; for IC50: dose-response, sigmoidal curve fit, groups A, B, C
Description: A TR-FRET based method was used for assaying compounds of the invention for KAT6A enzyme inhibitory activity. TR-FRET is homogeneous proximity assay where Europium-labelled anti-acetyl lysine antibody binds to the acetylated substrate labelled with biotin which in turn binds to streptavidin labelled APC fluorescence acceptor. Europium can transfer energy to APC in the complex and the interaction of two dye-labelled binding partners is detected by the energy transfer between a donor and an acceptor dye, and the subsequent light emission by the acceptor dye. KAT6A transfer an acetyl group from acetyl CoA to lysine amino acids of histones/target proteins. Typically, 5 μL of human-KAT6A (MYST domain 507-778 aa) in assay buffer (100 mM Tris HCl (pH 7.8), 15 mM NaCl, 1 mM EDTA, 0.01% Tween-20, 0.02% BSA, 1 mM DTT) is added to a 384-well plate containing 5 μL of selected test compound in final 1% DMSO, serially diluted in 1:3 in an 8-10-point titration. The selected compound of the present invention and enzyme are incubated for 30 min at room temperature. Next, 5 μL of substrate mix containing histone H4 peptide and acetyl-CoA in assay buffer is added to the plate. The final concentrations of H4 peptide and acetyl-CoA are 200 nM and 600 nM respectively. Following 30 min reaction at room temperature, 5 μL of detection mix containing Europium labelled anti-acetyl antibody and streptavidin-APC is added to the reaction wells. Plate is further incubated for 45 min at room temperature and is read in TR-FRET mode (Ex: 340 nm; Em: 615 nm and 665 nm) on a plate reader.
Selected compounds of the present invention were screened in the above-mentioned assay procedure and IC50 values were determined by fitting the dose-response data to sigmoidal curve fitting equation using Graph pad prism software V8. […]

T1 sequence (Q92794 507-778): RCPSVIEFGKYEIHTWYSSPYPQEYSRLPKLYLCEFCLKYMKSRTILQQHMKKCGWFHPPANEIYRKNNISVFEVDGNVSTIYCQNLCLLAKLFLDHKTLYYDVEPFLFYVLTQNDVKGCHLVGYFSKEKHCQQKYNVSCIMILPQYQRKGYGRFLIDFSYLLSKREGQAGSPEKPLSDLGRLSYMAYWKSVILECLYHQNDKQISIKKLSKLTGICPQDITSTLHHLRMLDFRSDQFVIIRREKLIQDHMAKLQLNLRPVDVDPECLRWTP

| inhibition at 1 µM [%] | IC50 [nM] | inhibition at 10 µM (compound at 10 μM (stated in the cell), read-out: Percent Inhibition (at 10 μM)) [%] | Compound |
| --- | --- | --- | --- |
| 100 | < 100 |  | COc1cccc(OC)c1S(=O)(=O)Nc1noc2nc(-c3ccccc3)cc(OC)c12 [Compound 1, 2,6-dimethoxy-N-(4-methoxy-6-phenylisoxazolo[5,4-b]pyridin-3-yl)benzenesulfonamide] |
| 100 | < 100 |  | COc1cccc(OC)c1S(=O)(=O)Nc1noc2nc(-c3ccccc3)nc(OC)c12 [Compound 2, 2,6-dimethoxy-N-(4-methoxy-6-phenylisoxazolo[5,4-d]pyrimidin-3-yl)benzenesulfonamide] |
| 96 | 110 to 200 |  | COc1cccc(OC)c1S(=O)(=O)Nc1noc2cc(-c3ccccc3)nc(OC)c12 [Compound 3, 2,6-dimethoxy-N-(4-methoxy-6-phenylisoxazolo[4,5-c]pyridin-3-yl)benzenesulfonamide] |
| 23 |  |  | COc1cccc(OC)c1S(=O)(=O)Nc1noc2cc(-c3ccccc3)n(C)c(=O)c12 [Compound 4, 2,6-dimethoxy-N-(5-methyl-4-oxo-6-phenyl-4,5-dihydroisoxazolo[4,5-c]pyridin-3-yl)benzenesulfonamide] |
| 52 | < 100 |  | COc1cc(-c2ccccc2)nc2onc(NS(=O)(=O)c3ccccc3-c3ccccc3)c12 [Compound 5, N-(4-methoxy-6-phenylisoxazolo[5,4-b]pyridin-3-yl)-[1,1′-biphenyl]-2-sulfonamide] |
|  |  | 58 | COc1cccc(OC)c1S(=O)(=O)Nc1noc2cc(-c3ccccc3)cnc12 [Compound 6, 2,6-dimethoxy-N-(6-phenylisoxazolo[4,5-b]pyridin-3-yl)benzenesulfonamide] |
| 25 |  |  | COc1cc(-c2ccccc2)nc2onc(NS(=O)(=O)c3ccccc3OC(F)(F)F)c12 [Compound 7, N-(4-methoxy-6-phenylisoxazolo[5,4-b]pyridin-3-yl)-2-(trifluoromethoxy)benzenesulfonamide] |
| 82 | 110 to 200 |  | COc1ccccc1S(=O)(=O)Nc1noc2nc(-c3ccccc3)cc(OC)c12 [Compound 8, 2-methoxy-N-(4-methoxy-6-phenylisoxazolo[5,4-b]pyridin-3-yl)benzenesulfonamide] |
| 62 | > 200 |  | CCOc1ccccc1S(=O)(=O)Nc1noc2nc(-c3ccccc3)cc(OC)c12 [Compound 9, 2-ethoxy-N-(4-methoxy-6-phenylisoxazolo[5,4-b]pyridin-3-yl)benzenesulfonamide] |
| 100 | < 100 |  | COc1ccccc1-c1cc(OC)c2c(NS(=O)(=O)c3c(OC)cccc3OC)noc2n1 [Compound 10, 2,6-dimethoxy-N-(4-methoxy-6-(2-methoxyphenyl)isoxazolo[5,4-b]pyridin-3-yl)benzenesulfonamide] |
| 12 |  |  | COc1cccc(OC)c1S(=O)(=O)Nc1noc2cc(-c3ccccc3)ncc12 [Compound 11, 2,6-dimethoxy-N-(6-phenylisoxazolo[4,5-c]pyridin-3-yl)benzenesulfonamide] |
| 54 |  |  | COc1cccc(OC)c1S(=O)(=O)Nc1noc2nc(N3CCCCC3)cc(OC)c12 [Compound 12, 2,6-dimethoxy-N-(4-methoxy-6-(piperidin-1-yl)isoxazolo[5,4-b]pyridin-3-yl)benzenesulfonamide] |
| 97 | 110 to 200 |  | COc1cccc(OC)c1S(=O)(=O)Nc1noc2nc(N3CCCC3)cc(OC)c12 [Compound 13, 2,6-dimethoxy-N-(4-methoxy-6-(pyrrolidin-1-yl)isoxazolo[5,4-b]pyridin-3-yl)benzenesulfonamide] |
| 49 |  |  | COc1cccc(OC)c1S(=O)(=O)Nc1noc2nc(N3CCOCC3)cc(OC)c12 [Compound 14, 2,6-dimethoxy-N-(4-methoxy-6-morpholinoisoxazolo[5,4-b]pyridin-3-yl)benzenesulfonamide] |
| 59 | > 200 |  | COc1cccc(OC)c1S(=O)(=O)Nc1noc2nc(N(C)C)cc(OC)c12 [Compound 15, N-(6-(dimethylamino)-4-methoxyisoxazolo[5,4-b]pyridin-3-yl)-2,6-dimethoxybenzenesulfonamide] |
| 100 | 110 to 200 |  | COc1cccc(OC)c1S(=O)(=O)Nc1noc2nc(N3CCC3)cc(OC)c12 [Compound 16, N-(6-(azetidin-1-yl)-4-methoxyisoxazolo[5,4-b]pyridin-3-yl)-2,6-dimethoxybenzenesulfonamide] |

| inhibition at 1 µM [%] | IC50 [nM] | inhibition at 10 µM (compound at 10 μM (stated in the cell), read-out: Percent Inhibition (at 10 μM)) [%] | Compound |
| --- | --- | --- | --- |
| 100 | 110 to 200 |  | COc1cccc(OC)c1S(=O)(=O)Nc1noc2nc(N3CC(OC)C3)cc(OC)c12 [Compound 17, 2,6-dimethoxy-N-(4-methoxy-6-(3-methoxyazetidin-1-yl)isoxazolo[5,4-b]pyridin-3-yl)benzenesulfonamide] |
| 100 | < 100 |  | COc1cccc(OC)c1S(=O)(=O)Nc1noc2nc(N3CCC(F)(F)C3)cc(OC)c12 [Compound 18, N-(6-(3,3-difluoropyrrolidin-1-yl)-4-methoxyisoxazolo[5,4-b]pyridin-3-yl)-2,6-dimethoxybenzenesulfonamide] |
| 92 | 110 to 200 |  | COc1cccc(OC)c1S(=O)(=O)Nc1noc2nc(N3CCC(OC)C3)cc(OC)c12 (stereo not shown) [Compound 19, 2,6-dimethoxy-N-(4-methoxy-6-(3-methoxypyrrolidin-1-yl)isoxazolo[5,4-b]pyridin-3-yl)benzenesulfonamide] |
| 14 |  |  | COc1cccc(OC)c1S(=O)(=O)Nc1noc2ncncc12 [Compound 20, N-(isoxazolo[5,4-d]pyrimidin-3-yl)-2,6-dimethoxybenzenesulfonamide] |
| 11 |  |  | COc1cccc(OC)c1S(=O)(=O)Nc1noc2cnccc12 [Compound 21, N-(isoxazolo[5,4-c]pyridin-3-yl)-2,6-dimethoxybenzenesulfonamide] |
| 12 |  |  | COc1cccc(OC)c1S(=O)(=O)Nc1noc2nccnc12 [Compound 22, N-(isoxazolo[4,5-b]pyrazin-3-yl)-2,6-dimethoxybenzenesulfonamide] |
| 13 |  |  | COc1cccc(OC)c1S(=O)(=O)Nc1noc2ncccc12 [Compound 24, N-(isoxazolo[5,4-b]pyridin-3-yl)-2,6-dimethoxybenzenesulfonamide] |
| 30 |  |  | COc1cc(-c2ccccc2)nc2onc(NS(=O)(=O)c3c(F)cccc3F)c12 [Compound 25, 2,6-difluoro-N-(4-methoxy-6-phenylisoxazolo[5,4-b]pyridin-3-yl)benzenesulfonamide] |
| 23 |  |  | COc1cc(-c2ccccc2)nc2onc(NS(=O)(=O)c3ccccc3F)c12 [Compound 26, 2-fluoro-N-(4-methoxy-6-phenylisoxazolo[5,4-b]pyridin-3-yl)benzenesulfonamide] |
| 17 |  |  | COc1cccc(OC)c1S(=O)(=O)Nc1noc2nc(N(C)C3CCCCC3)cc(OC)c12 [Compound 27, N-(6-(cyclohexyl(methyl)amino)-4-methoxyisoxazolo[5,4-b]pyridin-3-yl)-2,6-dimethoxybenzenesulfonamide] |
| 80 | > 200 |  | COc1cccc(OC)c1S(=O)(=O)Nc1noc2nc(N3CC(F)(F)C3)cc(OC)c12 [Compound 28, N-(6-(3,3-difluoroazetidin-1-yl)-4-methoxyisoxazolo[5,4-b]pyridin-3-yl)-2,6-dimethoxybenzenesulfonamide] |
| 38 |  |  | COc1ccc(CN(C)c2cc(OC)c3c(NS(=O)(=O)c4c(OC)cccc4OC)noc3n2)cc1 [Compound 29, 2,6-dimethoxy-N-(4-methoxy-6-((4-methoxybenzyl)(methyl)amino)isoxazolo[5,4-b]pyridin-3-yl)benzenesulfonamide] |
| 56 |  |  | CCN(Cc1ccc(OC)cc1)c1cc(OC)c2c(NS(=O)(=O)c3c(OC)cccc3OC)noc2n1 [Compound 30, N-(6-(ethyl(4-methoxybenzyl)amino)-4-methoxyisoxazolo[5,4-b]pyridin-3-yl)-2,6-dimethoxybenzenesulfonamide] |
|  | < 100 |  | COc1cccc(OC)c1S(=O)(=O)Nc1noc2nc(-c3ccsc3)cc(OC)c12 [Compound 31, 2,6-dimethoxy-N-(4-methoxy-6-(thiophen-3-yl)isoxazolo[5,4-b]pyridin-3-yl)benzenesulfonamide] |
|  | 110 to 200 |  | COc1cccc(OC)c1S(=O)(=O)Nc1noc2nc(C3=CCCC3)cc(OC)c12 [Compound 32, N-(6-(cyclopent-1-en-1-yl)-4-methoxyisoxazolo[5,4-b]pyridin-3-yl)-2,6-dimethoxybenzenesulfonamide] |
|  | < 100 |  | CCc1ccc(OC)c(S(=O)(=O)Nc2noc3nc(-c4ccccc4)cc(OC)c23)c1 [Compound 33, 5-ethyl-2-methoxy-N-(4-methoxy-6-phenylisoxazolo[5,4-b]pyridin-3-yl)benzenesulfonamide] |
